These results are taken from patent US9522124B2, “Methods for treating Alzheimer's disease” (Wisconsin Alumni Research Foundation, priority 2011, dated 2016).

One assay deals with APP695/swe mice. Nature of the assay: Long-term potentiation in hippocampal brain slices of treated mice. The format is in vivo, mouse. The following applies: 50 mg/kg/day in diet, 4 months. As to the method: FIG. 15. Compound 9 prevents synaptic deficits in APP695/swe mice. Non-Transgenic (Non-Tg) and APP695/swe mice were fed a diet containing 50 mg/kg/day of compound 9 for 4 months prior to synaptic assessment. Compound 9 prevented the severe deficits of the late component of long term potentiation (LTP) that characterizes the APP695/swe phenotype (A). […] Field excitatory postsynaptic potential (fEPSP) as percent of baseline (100) is shown as a function of time. Calibration: 1 mV, 1 ms. All values are mean±SEM. *P<0.0001.
In order to assess disease-relevant functions, we performed a pilot study with APP695/swe mice, a commonly-used mouse model of AD. APP695/swe mice express a modified mouse APP cDNA encoding the 695-amino acid isoform with a “humanized” Aβ domain that includes the familial AD-associated Swedish double mutation. APP695/swe mice develop synaptic deficits at 3-5 months of age, well before any sign of neurodegeneration can be observed. The cognitive deficits as well as the amyloid plaques can be detected only later, at approximately 12-18 months of age (reviewed in Duyckaerts, et al., 2008).
A group of non-transgenic and APP695/swe mice were fed a diet containing 50 mg/kg/day of compound 9. Treatment started at weaning (˜6 weeks of age) and lasted 4 months. […]

In the next assay the target is T1, ATase2 (Homo sapiens, UniProt Q9UHE5).
T1 construct: myc (C); made in house
T1 sequence (Q9UHE5 1-227): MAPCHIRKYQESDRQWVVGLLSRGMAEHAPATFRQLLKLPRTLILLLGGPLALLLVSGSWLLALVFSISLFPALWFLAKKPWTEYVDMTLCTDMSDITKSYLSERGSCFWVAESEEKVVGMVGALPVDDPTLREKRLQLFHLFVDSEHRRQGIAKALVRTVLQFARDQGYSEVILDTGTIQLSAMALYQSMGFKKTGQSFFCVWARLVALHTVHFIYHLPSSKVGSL
Kind of assay: AcetylCoA:lysine acetyltransferase assay (fluorescent, affinity purified ATase2-myc). The format is biochemical. As to the method: The acetyl:CoA lysine acetyltransferase activity of ATase1 and ATase2 was assayed as described before (Ko and Puglielli, 2009). Briefly, we adapted a commercially available fluorescent kit (cat. no. 10006515, Cayman Chemicals) as follows: as source of the enzymatic activity, we used affinity purified ATase1-myc and ATase2-myc at the final concentration of 300 ng/μl; as donor of the acetyl group, we used acetyl-CoA at the final concentration of 12.5 μM. […] The acetyltransferase assay was performed as recommended by the manufacturer.
For kinetic analysis of ATase1 and ATase2 inhibition, the assays were performed in the presence of the indicated concentrations of compound 9, 19 and 9.I. The concentration of acetyl-CoA was varied from […]. Values were plotted as a Lineweaver-Burk plot using Graphpad Prism software.
We previously described a fluorescent assay that is able to assess the acetylCoA:lysine acetyltransferase activity of ATase1 and ATase2 in vitro (Ko and Puglielli, 2009). The assay employs affinity purified ATase1 or ATase2 (as enzymes), acetyl-CoA (as donor of the acetyl group) and a recombinant peptide corresponding to the N-terminal tail of the histone protein H3 (as acceptor of the acetyl group). The H3 peptide was preferred to affinity purified BACE1 because it is acetylated in a conformation independent manner ((Ko and Puglielli, 2009) and data not shown) and, therefore, more suitable for large screening approaches. To identify possible ATase1 and ATase2 inhibitors we used the assay to screen a single library of 14,400 small molecules/compounds. The screen identified 186 small molecules/compounds able to inhibit ATase1, ATase2 or both in vitro. […] Each compound was then screened for cytotoxic properties by using multi-plex cytotoxicity assays on a variety of cell lines, including human neuroblastoma and human neuroglioma. […] The above 30 compounds were individually screened on human neuroglioma (H4) cells for their ability to reduce the levels of BACE1 and the generation of Aβ. Two compounds, 9 and 19, produced significant changes and were object of further study.

The subject of the next assay is C99. Kind of assay: Western blot assessment of C99 levels in H4 cell lysates. The format is cell-based, human. The following applies: H4 cells, 48 hours. As to the method: FIG. 7. Compound 9 and 19 decrease levels and activity of BACE1. H4 cells were treated with either compound 9 or 19 for 48 hours prior to Western blot assessment of BACE1 and C99 levels in cell lysates. C99 is the immediate product of BACE1-mediated cleavage of APP.
Western blotting was performed on a 4-12% Bis-Tris SDS-PAGE system (NuPAGE; Invitrogen, Carlsbad, Calif., USA) as described previously (Costantini et al., 2006; Jonas et al., 2008; Jonas et al., 2010; Ko and Puglielli, 2007; Ko and Puglielli, 2009; Pehar et al., 2010). The following antibodies were used in this study: anti-acetylated lysine (monoclonal; cat. no. ab409; Abcam, Cambridge, Mass., USA); anti-BACE1 (polyclonal; cat. no. ab2077; Abcam); anti-Myc (monoclonal; cat. no. sc-40; santa cruz, Santa Cruz, Calif., USA); anti-ATases/NAT8 (polyclonal; cat. no. AP4957c; Abgent, San Diego, Calif., USA); anti-actin (monoclonal; cat. no. A1978; Sigma, St Louis, Mo., USA); anti-C99 (monoclonal; cat. no. M066-3; MBL, Woburn, Mass., USA); anti-acetylated H3 (polyclonal; cat. no. 06-599, Millipore, Billerica, Mass.); anti-acetylated H4 (polyclonal; cat. no. 06-866, Millipore, Billerica, Mass.); anti-αPCNA (polyclonal; cat. no. AP2835b, Abgent, San Diego, Calif., USA).

The next assay relates to BACE1. Kind of assay: Western blot of BACE1 in brain tissue homogenates of APP695/swe mice. The format is in vivo, mouse. Particulars: 50 mg/kg/day in diet, 4 months. As to the method:
FIG. 16. Compound 9 decreases levels of BACE1 in brain tissue homogenates of APP695/swe transgenic mice. Compound 9 was administered to select transgenic mice for four months, beginning at weaning, with additional transgenic mice used as controls. Brain tissue homogenates were obtained from sacrificed transgenic mice and Western blot assessment of BACE1 in brain tissue homogenates was performed.
A group of non-transgenic and APP695/swe mice were fed a diet containing 50 mg/kg/day of compound 9. Treatment started at weaning (˜6 weeks of age) and lasted 4 months. At the end of treatment, the animals were sacrificed and the electrophysiological properties of hippocampal brain slices (as induced by theta burst stimulation to the Schaffer collaterals) were studied.

On to `O=c1c(Cl)c2oc3ccccc3nc-2c2ccccc12` [Compound 9], for which the “defect in late component of long-term potentiation (LTP)” value in the assay on APP695/swe mice (APP695/swe mice) is reported as “drastically prevented”. Moreover, the “effect on LTP in non-transgenic mice” value in the assay on APP695/swe mice (non-transgenic mice) is listed as “no effect was observed”. Moreover, at ATase2, the IC50 was ~790 nM. In addition, the “kinetics of inhibition for acetyl-CoA, ATase2” value at ATase2 (Lineweaver-Burk plot, acetyl-CoA varied) is recorded as “non-competitive inhibition”. Further, in the assay with C99, the “cellular levels of C99” value is “decreased cellular levels of C99”. Further, in the assay on BACE1, the “BACE1 levels in brain homogenates” value is reported as “marked reduction”.
